Activity calls are given as the source filed them. No cut-off for these calls is given here.

Seven compounds from ChEMBL document CHEMBL4145446, “Development of tacrine-bifendate conjugates with improved cholinesterase inhibitory and pro-cognitive efficacy and reduced hepatotoxicity” (Eur J Med Chem, 2018) can be followed below.

The target of data set [1] is Amyloid-beta precursor protein (Homo sapiens) (UniProt P05067). Put plainly: Inhibition of human self-induced amyloid beta (1 to 42) aggregation at 20 uM after 48 hrs by uranyl acetate staining based TEM analysis.
In the next data set the target is Cholinesterase (Equus caballus, UniProt P81908). Description: Inhibition of equine serum BuChE using butyrylthiocholine chloride as substrate preincubated for 15 mins followed by substrate addition measured every minute by Ellman's method.
Data set [2] is described as follows: Cytotoxicity against rat PC12 cells assessed as inhibition of cell viability at 10 uM by MTT assay relative to control. It counts as cell-based, PC-12. To be noted: read-out: INH.
A short description of data set [3]: Cytotoxicity against rat PC12 cells assessed as inhibition of cell viability at 1 uM by MTT assay relative to control. It counts as cell-based, PC-12. To be noted: read-out: INH. Background: Tetrazolium dyes change colour on reduction, which living cells bring about.
The nature of data set [4]: Cytotoxicity against human HepG2 cells assessed as inhibition of cell viability at 50 uM by MTT assay relative to control. To be noted: read-out: INH. It counts as cell-based.
A short description of data set [5]: Cytotoxicity against human HepG2 cells assessed as inhibition of cell viability at 1 uM by MTT assay relative to control. Format: cell-based. To be noted: read-out: INH.
A short description of data set [6]: Cytotoxicity against rat PC12 cells assessed as inhibition of cell viability at 50 uM by MTT assay relative to control. It counts as cell-based, PC-12. The settings on record: read-out: INH.
For the next data set, the target named is Acetylcholinesterase (Electrophorus electricus, UniProt O42275). Put plainly: Inhibition of electric eel AChE using acetylthiocholine chloride as substrate preincubated for 15 mins followed by substrate addition measured every minute by Ellman's method. (Ellman's reagent forms a yellow product with free thiols.)
Data set [7] in a line: Cytotoxicity against human HepG2 cells assessed as inhibition of cell viability at 10 uM by MTT assay relative to control. It counts as cell-based. The settings on record: read-out: INH.
Data set [8] relates to Mus musculus. Put plainly: Hepatotoxicity in Kunming mouse assessed as serum ASAT level at 106 mg/kg, ig cotreated with THA after 48 hrs by colorimetric method (reference value: 101.5 +/- 22.3 U/L). Format: toxicity, organism-based. The settings on record: in vivo, po.
Data set [9] relates to Mus musculus. Put plainly: Hepatotoxicity in Kunming mouse assessed as inflammatory cell infiltration in liver at 35 mg/kg, ig cotreated with THA after 48 hrs by H and E staining based assay. It counts as toxicity, organism-based. To be noted: in vivo, po.
Data set [10] deals with Acetylcholinesterase (Electrophorus electricus) (UniProt O42275). Description: Inhibition of electric eel AChE at 50 uM using acetylthiocholine chloride as substrate preincubated for 15 mins followed by substrate addition measured every minute by Ellman's method.
Data set [11] concerns Mus musculus. Put plainly: Hepatotoxicity in Kunming mouse assessed as serum ALT level at 106 mg/kg, ig after 48 hrs by colorimetric method (reference value: 42.7 +/- 6.3 U/L). Format: toxicity, organism-based. To be noted: in vivo, po.
Data set [12] deals with Mus musculus. Put plainly: Hepatotoxicity in Kunming mouse assessed as serum ALT level at 106 mg/kg, ig cotreated with THA after 48 hrs by colorimetric method (reference value: 42.7 +/- 6.3 U/L). To be noted: in vivo, po. Format: toxicity, organism-based.
In data set [13] the test system is Mus musculus. Description: Hepatotoxicity in Kunming mouse assessed as histomorphological changes in liver at 106 mg/kg, ig after 48 hrs by H and E staining based assay. To be noted: in vivo, po. It counts as toxicity, organism-based.
In data set [14] the test system is Mus musculus. Put plainly: Hepatotoxicity in Kunming mouse assessed as serum ASAT level at 106 mg/kg, ig after 48 hrs by colorimetric method (reference value: 101.5 +/- 22.3 U/L). It counts as toxicity, organism-based. The settings on record: in vivo, po.
Data set [15] has as its target Cholinesterase (Equus caballus) (UniProt P81908). Put plainly: Inhibition of equine serum BuChE at 50 uM using butyrylthiocholine chloride as substrate preincubated for 15 mins followed by substrate addition measured every minute by Ellman's method.
Data set [16] deals with Mus musculus. Put plainly: Hepatotoxicity in Kunming mouse assessed as increase in serum ALT level at 106 mg/kg, ig after 48 hrs by colorimetric method relative to control. Format: toxicity, organism-based. To be noted: in vivo, po.
Data set [17] concerns Mus musculus. Description: Hepatotoxicity in Kunming mouse assessed as increase in serum ASAT level at 106 mg/kg, ig after 48 hrs by colorimetric method relative to control. It counts as toxicity, organism-based. To be noted: in vivo, po.
For data set [18], the system named is Mus musculus. Description: Effect on spatial memory performance in ICR mouse model of scopalamine-induced memory impairment assessed as total distance travelled at 20 umol equiv/kg, po pretreated for 30 mins followed by scopalamine treatment measured for 90 secs by Morris water maze test. It counts as ADME, organism-based. To be noted: 0.025 h.
In data set [19] the target is Acetylcholinesterase (Electrophorus electricus) (UniProt O42275). Put plainly: Mixed-type inhibition of electric eel AChE at 25 to 100 nM using acetylthiocholine chloride as substrate preincubated for 15 mins followed by substrate addition by Lineweaver-Burk plot analysis.
The test system of data set [20] is L02. Put plainly: Induction of apoptosis in human HL7702 cells at 10 uM in presence of PI3K inhibitor LY294002 by FITC staining based flow cytometry relative to control. The settings on record: l02, 10 µM. Format: cell-based. For orientation: In flow cytometry, cells or beads pass a laser one at a time.
Data set [21] relates to Mus musculus. Put plainly: Effect on spatial memory performance in ICR mouse model of scopalamine-induced memory impairment assessed as swimming speed at 20 umol equiv/kg, po pretreated for 30 mins followed by scopalamine treatment measured for 90 secs by Morris water maze test. It counts as ADME, organism-based. To be noted: 0.025 h.
Data set [22] concerns L02. Put plainly: Cytotoxicity against human HL7702 cells assessed as reduction in cell viability at 1 to 10 uM by MTT assay. The settings on record: l02, 10 µM. Format: cell-based.
The test system of data set [23] is Mus musculus. Put plainly: Cognition enhancing effect in ICR mouse model of scopalamine-induced memory impairment assessed as improvement in target quadrant preference at 20 umol equiv/kg, po pretreated for 30 mins followed by scopalamine treatment measured on day 15 by Morris water maze test. It counts as functional, organism-based.

Sequence of Cholinesterase (P81908 whole entry): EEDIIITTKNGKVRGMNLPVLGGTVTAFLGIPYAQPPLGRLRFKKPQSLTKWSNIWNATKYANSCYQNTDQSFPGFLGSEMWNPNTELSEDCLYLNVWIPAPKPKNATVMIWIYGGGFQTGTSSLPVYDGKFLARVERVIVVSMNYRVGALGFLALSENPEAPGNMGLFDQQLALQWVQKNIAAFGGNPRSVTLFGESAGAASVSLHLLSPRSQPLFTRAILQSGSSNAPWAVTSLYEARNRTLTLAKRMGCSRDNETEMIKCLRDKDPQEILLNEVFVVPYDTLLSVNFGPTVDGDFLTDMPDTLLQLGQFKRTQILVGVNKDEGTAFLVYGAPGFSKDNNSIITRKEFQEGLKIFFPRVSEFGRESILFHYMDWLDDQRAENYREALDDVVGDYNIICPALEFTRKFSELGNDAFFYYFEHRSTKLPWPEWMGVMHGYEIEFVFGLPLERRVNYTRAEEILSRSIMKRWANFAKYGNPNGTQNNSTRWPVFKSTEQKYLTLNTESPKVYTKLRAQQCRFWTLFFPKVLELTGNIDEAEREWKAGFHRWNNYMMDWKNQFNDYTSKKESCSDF
Sequence of Acetylcholinesterase (O42275 whole entry): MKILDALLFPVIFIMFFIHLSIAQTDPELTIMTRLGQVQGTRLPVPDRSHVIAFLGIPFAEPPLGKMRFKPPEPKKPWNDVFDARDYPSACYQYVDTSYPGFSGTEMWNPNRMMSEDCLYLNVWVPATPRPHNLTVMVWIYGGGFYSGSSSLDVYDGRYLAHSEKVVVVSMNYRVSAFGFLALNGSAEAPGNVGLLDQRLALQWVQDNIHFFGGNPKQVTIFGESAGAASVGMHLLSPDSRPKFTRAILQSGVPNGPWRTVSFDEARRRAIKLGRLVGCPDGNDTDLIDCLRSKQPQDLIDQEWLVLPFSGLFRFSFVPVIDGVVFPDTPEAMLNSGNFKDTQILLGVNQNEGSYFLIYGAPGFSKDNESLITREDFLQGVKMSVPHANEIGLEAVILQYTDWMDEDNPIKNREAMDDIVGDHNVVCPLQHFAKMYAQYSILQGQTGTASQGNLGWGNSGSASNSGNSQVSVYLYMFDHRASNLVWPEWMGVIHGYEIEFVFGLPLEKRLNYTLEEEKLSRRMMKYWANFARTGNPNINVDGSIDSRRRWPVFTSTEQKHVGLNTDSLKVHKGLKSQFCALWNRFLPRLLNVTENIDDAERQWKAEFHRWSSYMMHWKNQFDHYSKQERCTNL
Sequence of Amyloid-beta precursor protein (Homo sapiens) (P05067 whole entry): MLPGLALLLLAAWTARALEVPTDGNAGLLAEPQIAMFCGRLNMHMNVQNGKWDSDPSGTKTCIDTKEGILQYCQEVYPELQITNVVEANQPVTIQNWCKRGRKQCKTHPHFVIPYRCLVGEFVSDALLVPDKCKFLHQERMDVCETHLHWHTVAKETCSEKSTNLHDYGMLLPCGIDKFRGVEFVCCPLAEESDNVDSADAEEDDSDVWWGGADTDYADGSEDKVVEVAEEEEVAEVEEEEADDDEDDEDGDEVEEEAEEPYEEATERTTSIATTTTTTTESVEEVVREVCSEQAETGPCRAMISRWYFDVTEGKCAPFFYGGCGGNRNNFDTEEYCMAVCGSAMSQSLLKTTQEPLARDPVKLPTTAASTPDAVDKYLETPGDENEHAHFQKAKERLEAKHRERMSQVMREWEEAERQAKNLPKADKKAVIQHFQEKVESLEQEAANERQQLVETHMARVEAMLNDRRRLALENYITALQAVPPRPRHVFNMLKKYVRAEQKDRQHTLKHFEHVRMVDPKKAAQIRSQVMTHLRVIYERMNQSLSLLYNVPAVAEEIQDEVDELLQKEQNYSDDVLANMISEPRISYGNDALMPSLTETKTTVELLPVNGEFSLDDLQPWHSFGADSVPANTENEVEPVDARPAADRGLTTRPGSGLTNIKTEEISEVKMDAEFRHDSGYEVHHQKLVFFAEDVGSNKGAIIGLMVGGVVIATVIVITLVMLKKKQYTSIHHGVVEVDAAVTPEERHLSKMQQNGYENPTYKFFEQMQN
Sequence of Acetylcholinesterase (Electrophorus electricus) (O42275 24-633 limits assumed): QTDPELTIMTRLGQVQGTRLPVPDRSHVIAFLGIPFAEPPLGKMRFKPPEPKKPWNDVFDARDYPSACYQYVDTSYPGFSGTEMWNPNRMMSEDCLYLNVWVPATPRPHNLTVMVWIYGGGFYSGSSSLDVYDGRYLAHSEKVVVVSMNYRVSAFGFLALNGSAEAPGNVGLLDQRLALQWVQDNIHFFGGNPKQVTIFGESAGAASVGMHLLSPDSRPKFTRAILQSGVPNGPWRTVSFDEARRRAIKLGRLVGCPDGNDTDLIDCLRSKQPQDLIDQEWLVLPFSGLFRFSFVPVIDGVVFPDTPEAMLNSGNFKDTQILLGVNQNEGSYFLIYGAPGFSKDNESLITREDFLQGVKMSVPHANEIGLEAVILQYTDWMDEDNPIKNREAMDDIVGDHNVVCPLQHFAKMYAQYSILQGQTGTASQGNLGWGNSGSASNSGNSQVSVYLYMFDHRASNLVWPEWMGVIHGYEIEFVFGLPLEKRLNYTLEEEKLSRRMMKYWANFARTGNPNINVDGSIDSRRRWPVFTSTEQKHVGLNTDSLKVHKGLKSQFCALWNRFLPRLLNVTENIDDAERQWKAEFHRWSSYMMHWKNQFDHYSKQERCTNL
Sequence of Cholinesterase (Equus caballus) (P81908 whole entry): as the sequence (P81908 whole entry) above

On to `COc1cc(/C=C/C(=O)CC(=O)/C=C/c2ccc(O)c(OC)c2)ccc1O`, for which, in data set [1], the inhibition entry was “Active”.

In general, IC50 refers to the midpoint of a concentration-inhibition curve. A higher IC50 goes with weaker potency. In the case of `COC(=O)c1cc(OC)c2c(c1-c1c(C(=O)NCCCCCCNc3c4c(nc5ccccc35)CCCC4)cc(OC)c3c1OCO3)OCO2`, the figures for the IC50 against Cholinesterase and at Acetylcholinesterase were 4.02 nM and 616 nM, respectively. For the same compound, the cytotoxicity at 10 µM in data set [2] and in data set [7] was less than 5% throughout. In addition, the cytotoxicity at 1 µM in data set [3] was 5.26%; in [5] it was less than 5%. In addition, the cytotoxicity at 50 µM in data set [4] was found to be 34.4%; in data set [6] it was 27.3%.

For the compound `COC(=O)c1cc(OC)c2c(c1-c1c(C(=O)OC)cc(OC)c3c1OCO3)OCO2` [BIFENDATE], the Activity in the data set with Mus musculus [8] is 110 U/L; with Mus musculus [9] it was “Non-Toxic”; in the data set with Mus musculus [11], 39.3 U/L; with Mus musculus [12], 41.9 U/L; in the data set with Mus musculus [13], “Non-Toxic”; with Mus musculus [14], 105 U/L. For the same compound, the IC50 at Cholinesterase and against Acetylcholinesterase was more than 50000 nM in each case. Further, the figures for the cytotoxicity at 10 µM in [2] and in data set [7] were less than 5% and 8.45%, respectively. Moreover, the cytotoxicity at 1 µM in [3] and in data set [5] was less than 5% each time. The cytotoxicity at 50 µM in [4] was 11.6%; in data set [6] it was 7.21%. Besides, the inhibition result in data set [10] and in data set [15] was “inactive” each time.

With `COC(=O)c1cc(OC)c2c(c1-c1c(C(=O)NCCCCNc3c4c(nc5ccccc35)CCCC4)cc(OC)c3c1OCO3)OCO2`, the IC50 came out at 75.5 nM at Cholinesterase and 923 nM against Acetylcholinesterase. In addition, the cytotoxicity at 10 µM in data set [2] was less than 5%; in [7] it was 11.9%. Also, the cytotoxicity at 1 µM in data set [3] and in data set [5] was less than 5% in each case. Besides, the cytotoxicity at 50 µM in data set [4] stood at 19.5%; in data set [6] it was 19.3%.

As to `COC(=O)c1cc(OC)c2c(c1-c1c(C(=O)NCCCCCCCCCCNc3c4c(nc5ccccc35)CCCC4)cc(OC)c3c1OCO3)OCO2`, the IC50 on Cholinesterase amounted to 8.63 nM; at Acetylcholinesterase it was 27.3 nM. Besides, the cytotoxicity at 10 µM in data set [2] is less than 5%; in data set [7] it was 10.8%. Further, the results for the cytotoxicity at 1 µM in [3] and in data set [5] were less than 5% and 6.71%, respectively. The “fold change (FC)” value in the data set with Mus musculus [16] and in the data set on Mus musculus [17] was 1.1 each time. The values for the cytotoxicity at 50 µM in data set [4] and in data set [6] were 23.1% and 7.84%, respectively. Besides, the Activity entry in the data set with Mus musculus [18] was “Non-Toxic”; with L02 [20], 14.1%; in the data set with Mus musculus [21], “Non-Toxic”; in the data set on Mus musculus [13] it was “Non-Toxic”; with L02 [22], “Non-Toxic”. The inhibition result in data set [19] and in data set [1] was “Active” in each case. Besides, the outcome in the data set with Mus musculus [23] was Active.

Regarding `COC(=O)c1cc(OC)c2c(c1-c1c(C(=O)NCCCCCCCCNc3c4c(nc5ccccc35)CCCC4)cc(OC)c3c1OCO3)OCO2`, the IC50 on Cholinesterase was 6.5 nM; at Acetylcholinesterase, 945 nM. Also, the cytotoxicity at 10 µM in data set [2] is less than 5%; in data set [7], 9.53%. In addition, the cytotoxicity at 1 µM in data set [3] was less than 5%; in [5], 5.81%. Moreover, the results for the cytotoxicity at 50 µM in [4] and in [6] were 51.9% and 38.9%, respectively.

As for `COC(=O)c1cc(OC)c2c(c1-c1c(C(=O)NCCCCCCCCCCCCNc3c4c(nc5ccccc35)CCCC4)cc(OC)c3c1OCO3)OCO2`, the results for the IC50 on Cholinesterase and against Acetylcholinesterase were 35.3 nM and 52.1 nM, respectively. Also, the cytotoxicity at 10 µM in data set [2] is less than 5%; in data set [7], 13.8%. Besides, the cytotoxicity at 1 µM is less than 5% in data set [3] and 7.35% in data set [5]. Besides, the cytotoxicity at 50 µM in data set [4] came to 46.1%; in data set [6], 7.76%.
